Assay results as given in ChEMBL document CHEMBL5291721, “A preclinical secondary pharmacology resource illuminates target-adverse drug reaction associations of marketed drugs” (Nat Commun, 2023).

Key:
[1] = target: T1, Muscarinic acetylcholine receptor M1 (Homo sapiens, UniProt P11229); format: functional
T1 sequence (P11229 whole entry): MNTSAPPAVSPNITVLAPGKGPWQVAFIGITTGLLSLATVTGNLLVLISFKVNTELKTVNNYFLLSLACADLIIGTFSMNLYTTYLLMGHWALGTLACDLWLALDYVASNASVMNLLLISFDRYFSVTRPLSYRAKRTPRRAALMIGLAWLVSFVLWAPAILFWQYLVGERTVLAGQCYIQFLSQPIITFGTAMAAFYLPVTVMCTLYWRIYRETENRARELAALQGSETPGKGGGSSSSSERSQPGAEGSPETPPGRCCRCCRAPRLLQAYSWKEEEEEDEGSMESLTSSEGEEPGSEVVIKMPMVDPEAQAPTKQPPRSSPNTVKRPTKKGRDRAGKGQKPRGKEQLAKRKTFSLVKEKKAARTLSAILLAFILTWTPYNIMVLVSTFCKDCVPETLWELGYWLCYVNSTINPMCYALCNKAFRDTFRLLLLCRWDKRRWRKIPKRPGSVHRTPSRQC

Cannabinoid receptor 1 = Cannabinoid receptor 1 (Homo sapiens, UniProt P21554); format: functional, cell-based
Sequence of Cannabinoid receptor 1 (P21554 whole entry): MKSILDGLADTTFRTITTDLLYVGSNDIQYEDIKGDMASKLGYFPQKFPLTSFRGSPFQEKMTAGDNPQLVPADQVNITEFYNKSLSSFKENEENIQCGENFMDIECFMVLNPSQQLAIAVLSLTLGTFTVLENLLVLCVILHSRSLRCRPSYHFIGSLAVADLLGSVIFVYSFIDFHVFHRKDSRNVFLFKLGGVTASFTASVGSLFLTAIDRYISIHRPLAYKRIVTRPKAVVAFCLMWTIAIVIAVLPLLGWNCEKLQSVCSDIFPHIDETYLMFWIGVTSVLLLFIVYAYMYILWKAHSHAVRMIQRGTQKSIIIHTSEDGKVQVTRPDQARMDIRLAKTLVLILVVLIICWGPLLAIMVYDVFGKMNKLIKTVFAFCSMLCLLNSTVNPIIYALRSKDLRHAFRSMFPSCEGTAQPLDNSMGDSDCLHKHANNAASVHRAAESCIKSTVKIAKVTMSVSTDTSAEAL

[2] = target: T2, Alpha-2A adrenergic receptor (Homo sapiens, UniProt P08913); format: functional, cell-based
T2 sequence (P08913 whole entry): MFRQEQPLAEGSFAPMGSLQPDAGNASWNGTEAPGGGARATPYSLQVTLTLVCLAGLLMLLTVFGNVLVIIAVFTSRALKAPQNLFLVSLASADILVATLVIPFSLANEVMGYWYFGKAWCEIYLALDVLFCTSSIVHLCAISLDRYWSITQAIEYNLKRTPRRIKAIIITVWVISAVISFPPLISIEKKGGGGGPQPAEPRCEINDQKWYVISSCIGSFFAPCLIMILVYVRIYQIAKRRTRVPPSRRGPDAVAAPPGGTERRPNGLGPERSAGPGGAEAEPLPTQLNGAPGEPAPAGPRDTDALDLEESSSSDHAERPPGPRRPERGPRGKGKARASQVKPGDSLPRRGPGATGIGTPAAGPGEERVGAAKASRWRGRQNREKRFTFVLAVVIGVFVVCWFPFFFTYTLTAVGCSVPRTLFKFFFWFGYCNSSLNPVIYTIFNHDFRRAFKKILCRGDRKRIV

[3] = target: Voltage-dependent L-type calcium channel subunit alpha-1C (Rattus norvegicus, UniProt P22002); format: functional
Sequence of Voltage-dependent L-type calcium channel subunit alpha-1C (P22002 whole entry): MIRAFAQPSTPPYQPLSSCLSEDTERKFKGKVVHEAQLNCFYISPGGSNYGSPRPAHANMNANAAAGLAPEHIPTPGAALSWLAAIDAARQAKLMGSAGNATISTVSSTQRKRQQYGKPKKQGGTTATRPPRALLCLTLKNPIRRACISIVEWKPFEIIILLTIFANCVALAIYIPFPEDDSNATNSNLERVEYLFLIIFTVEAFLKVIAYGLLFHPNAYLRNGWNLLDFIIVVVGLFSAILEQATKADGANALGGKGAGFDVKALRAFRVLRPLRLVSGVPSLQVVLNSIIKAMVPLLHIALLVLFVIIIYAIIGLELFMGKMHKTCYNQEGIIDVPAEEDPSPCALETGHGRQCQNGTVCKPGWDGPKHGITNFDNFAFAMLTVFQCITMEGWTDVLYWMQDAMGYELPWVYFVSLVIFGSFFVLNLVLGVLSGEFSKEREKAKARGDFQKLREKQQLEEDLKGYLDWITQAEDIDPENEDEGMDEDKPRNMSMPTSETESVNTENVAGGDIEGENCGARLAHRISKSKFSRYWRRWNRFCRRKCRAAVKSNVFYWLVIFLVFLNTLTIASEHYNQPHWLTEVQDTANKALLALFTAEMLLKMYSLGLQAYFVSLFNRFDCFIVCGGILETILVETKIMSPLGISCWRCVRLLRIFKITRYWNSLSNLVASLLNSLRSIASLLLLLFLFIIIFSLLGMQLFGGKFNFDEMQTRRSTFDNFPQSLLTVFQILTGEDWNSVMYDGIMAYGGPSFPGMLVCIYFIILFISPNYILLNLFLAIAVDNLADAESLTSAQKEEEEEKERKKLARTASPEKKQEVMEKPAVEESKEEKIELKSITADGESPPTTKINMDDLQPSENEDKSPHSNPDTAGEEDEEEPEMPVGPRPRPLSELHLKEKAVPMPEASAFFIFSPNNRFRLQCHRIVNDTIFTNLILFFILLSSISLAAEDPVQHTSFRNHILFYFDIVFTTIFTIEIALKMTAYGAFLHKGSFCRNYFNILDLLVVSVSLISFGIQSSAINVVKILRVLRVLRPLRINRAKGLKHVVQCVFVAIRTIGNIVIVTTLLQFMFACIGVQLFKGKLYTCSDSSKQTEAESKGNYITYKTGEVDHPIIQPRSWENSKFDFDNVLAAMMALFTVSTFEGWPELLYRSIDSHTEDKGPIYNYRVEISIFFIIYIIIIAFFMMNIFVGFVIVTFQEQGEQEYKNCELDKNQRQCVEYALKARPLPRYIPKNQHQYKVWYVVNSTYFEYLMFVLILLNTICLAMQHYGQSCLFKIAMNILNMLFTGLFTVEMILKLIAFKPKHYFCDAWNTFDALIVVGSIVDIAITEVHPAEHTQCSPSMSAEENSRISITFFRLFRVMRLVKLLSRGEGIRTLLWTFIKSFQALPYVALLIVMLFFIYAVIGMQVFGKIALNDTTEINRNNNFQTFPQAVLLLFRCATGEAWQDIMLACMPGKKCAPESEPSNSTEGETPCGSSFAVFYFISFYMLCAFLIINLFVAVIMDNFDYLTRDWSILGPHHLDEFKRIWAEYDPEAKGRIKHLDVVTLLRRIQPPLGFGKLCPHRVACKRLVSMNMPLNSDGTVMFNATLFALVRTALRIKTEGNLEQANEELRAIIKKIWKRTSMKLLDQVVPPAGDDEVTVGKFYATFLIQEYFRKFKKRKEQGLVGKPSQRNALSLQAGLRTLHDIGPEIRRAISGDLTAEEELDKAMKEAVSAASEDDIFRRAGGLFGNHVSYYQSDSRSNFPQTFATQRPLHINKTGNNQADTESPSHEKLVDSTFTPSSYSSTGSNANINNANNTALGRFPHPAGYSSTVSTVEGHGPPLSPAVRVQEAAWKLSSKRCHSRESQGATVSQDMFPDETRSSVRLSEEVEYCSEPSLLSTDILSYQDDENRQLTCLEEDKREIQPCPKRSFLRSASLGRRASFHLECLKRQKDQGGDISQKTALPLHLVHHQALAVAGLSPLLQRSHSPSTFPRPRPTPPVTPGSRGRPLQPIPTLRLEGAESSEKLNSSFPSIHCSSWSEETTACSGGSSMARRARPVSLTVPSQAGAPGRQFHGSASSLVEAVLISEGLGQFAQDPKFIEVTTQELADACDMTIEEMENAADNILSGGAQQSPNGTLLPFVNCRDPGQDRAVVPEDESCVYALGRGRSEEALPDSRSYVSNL

Progesterone receptor = target: T3, Progesterone receptor (Homo sapiens, UniProt P06401); format: functional
T3 sequence (P06401 whole entry): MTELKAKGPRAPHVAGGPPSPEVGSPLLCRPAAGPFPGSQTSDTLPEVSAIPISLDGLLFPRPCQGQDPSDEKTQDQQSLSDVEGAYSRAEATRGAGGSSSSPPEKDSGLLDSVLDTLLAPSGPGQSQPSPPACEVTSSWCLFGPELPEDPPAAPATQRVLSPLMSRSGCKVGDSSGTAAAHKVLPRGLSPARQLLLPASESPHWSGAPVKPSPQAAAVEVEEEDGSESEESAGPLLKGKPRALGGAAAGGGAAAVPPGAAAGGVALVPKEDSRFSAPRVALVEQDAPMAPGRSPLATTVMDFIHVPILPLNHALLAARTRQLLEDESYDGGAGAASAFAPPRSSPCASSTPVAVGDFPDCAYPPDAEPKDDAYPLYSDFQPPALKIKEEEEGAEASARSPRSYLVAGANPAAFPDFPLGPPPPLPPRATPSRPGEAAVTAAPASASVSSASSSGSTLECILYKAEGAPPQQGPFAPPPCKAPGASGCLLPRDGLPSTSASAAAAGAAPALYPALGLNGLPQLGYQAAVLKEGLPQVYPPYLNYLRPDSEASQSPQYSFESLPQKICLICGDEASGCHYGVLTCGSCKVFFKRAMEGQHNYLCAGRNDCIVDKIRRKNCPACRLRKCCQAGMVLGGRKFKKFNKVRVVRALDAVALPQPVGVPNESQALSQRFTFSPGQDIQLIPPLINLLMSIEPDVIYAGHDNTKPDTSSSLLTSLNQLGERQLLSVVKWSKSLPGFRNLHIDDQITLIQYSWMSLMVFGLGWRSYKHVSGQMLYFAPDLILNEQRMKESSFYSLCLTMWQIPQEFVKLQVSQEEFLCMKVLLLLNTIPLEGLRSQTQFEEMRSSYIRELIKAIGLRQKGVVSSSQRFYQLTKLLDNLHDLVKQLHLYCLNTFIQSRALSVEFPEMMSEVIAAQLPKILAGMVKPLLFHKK

Mu-type opioid receptor = Mu-type opioid receptor (Homo sapiens, UniProt P35372)
Sequence of Mu-type opioid receptor (P35372 whole entry): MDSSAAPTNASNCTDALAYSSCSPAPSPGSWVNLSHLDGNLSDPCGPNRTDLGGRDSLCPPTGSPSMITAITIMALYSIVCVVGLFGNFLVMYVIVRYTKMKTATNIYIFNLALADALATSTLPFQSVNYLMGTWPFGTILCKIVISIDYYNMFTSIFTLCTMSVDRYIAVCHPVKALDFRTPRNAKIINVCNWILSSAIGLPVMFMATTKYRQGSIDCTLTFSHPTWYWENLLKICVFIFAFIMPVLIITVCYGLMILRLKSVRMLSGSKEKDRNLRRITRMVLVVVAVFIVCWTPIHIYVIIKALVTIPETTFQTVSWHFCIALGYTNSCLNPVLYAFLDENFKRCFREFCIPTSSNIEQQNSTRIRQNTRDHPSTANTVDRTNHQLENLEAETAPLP

Histamine H3 receptor = Histamine H3 receptor (Homo sapiens, UniProt Q9Y5N1)
Sequence of Histamine H3 receptor (Q9Y5N1 whole entry): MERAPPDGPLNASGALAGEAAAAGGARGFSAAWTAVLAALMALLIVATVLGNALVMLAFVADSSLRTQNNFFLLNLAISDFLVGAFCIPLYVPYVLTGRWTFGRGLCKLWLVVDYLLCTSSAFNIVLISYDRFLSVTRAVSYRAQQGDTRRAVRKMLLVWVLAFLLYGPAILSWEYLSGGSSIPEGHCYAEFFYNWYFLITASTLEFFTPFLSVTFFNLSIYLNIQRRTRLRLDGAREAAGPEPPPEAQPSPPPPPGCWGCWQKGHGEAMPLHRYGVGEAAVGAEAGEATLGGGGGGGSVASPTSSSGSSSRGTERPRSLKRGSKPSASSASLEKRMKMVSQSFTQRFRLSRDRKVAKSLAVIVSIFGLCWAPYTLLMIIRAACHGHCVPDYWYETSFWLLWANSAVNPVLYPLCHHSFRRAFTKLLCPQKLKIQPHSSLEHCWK

[4] = target: T4, Muscarinic acetylcholine receptor M2 (Homo sapiens, UniProt P08172)
T4 sequence (P08172 whole entry): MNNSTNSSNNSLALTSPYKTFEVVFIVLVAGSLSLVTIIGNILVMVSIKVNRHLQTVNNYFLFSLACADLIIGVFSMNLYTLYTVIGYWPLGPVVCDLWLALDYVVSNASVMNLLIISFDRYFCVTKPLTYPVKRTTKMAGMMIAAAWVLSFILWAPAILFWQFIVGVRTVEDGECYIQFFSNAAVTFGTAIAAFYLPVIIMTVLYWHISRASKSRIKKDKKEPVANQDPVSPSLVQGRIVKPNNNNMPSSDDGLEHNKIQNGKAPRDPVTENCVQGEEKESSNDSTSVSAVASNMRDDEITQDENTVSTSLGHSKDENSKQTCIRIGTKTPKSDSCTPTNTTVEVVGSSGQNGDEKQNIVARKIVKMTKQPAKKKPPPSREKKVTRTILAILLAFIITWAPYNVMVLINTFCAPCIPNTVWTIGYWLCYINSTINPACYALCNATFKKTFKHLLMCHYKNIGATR
Note: assay procedure not described here.

Structure (SMILES)	AC50 [1] [µM]	AC50 (Cannabinoid receptor 1) [µM]	AC50 [2] [µM]	AC50 [3] [µM]	AC50 (Progesterone receptor) [µM]	AC50 (Mu-type opioid receptor) [µM]	AC50 (Histamine H3 receptor) [µM]	AC50 [4] [µM]
CC1(C)S[C@@H]2[C@H](NC(=O)[C@H](N)c3ccccc3)C(=O)N2[C@H]1C(=O)OCOC(=O)[C@@H]1N2C(=O)C[C@H]2S(=O)(=O)C1(C)C [SULTAMICILLIN]	> 30	> 30	> 30	> 30	> 30	–	–	–
Nc1ncn([C@H]2C[C@H](O)[C@@H](CO)O2)c(=O)n1 [DECITABINE]	> 30	–	> 30	> 30	> 30	–	–	–
[H]/N=C(/N)N/C(=N/[H])NCCc1ccccc1 [PHENFORMIN]	> 30	–	> 10	> 30	–	–	–	–
CCCN[C@H]1CCc2nc(N)sc2C1 [PRAMIPEXOLE]	> 10	> 30	–	> 10	> 30	–	–	–
CCOC(=O)C1=C[C@]2(CC)CCCN3CCc4c(n1c1ccccc41)[C@@H]32 [VINPOCETINE]	> 30	> 30	19	–	> 30	–	–	–
CC12CC3CC(C)(C1)CC(N)(C3)C2 [MEMANTINE]	> 10	> 30	> 10	> 10	–	–	–	–
CC(C)COCC(CN(Cc1ccccc1)c1ccccc1)N1CCCC1 (stereo unspecified) [BEPRIDIL]	23	–	> 30	24	> 30	–	–	–
CC(C)(C)C(=O)OCC(=O)[C@H]1CC[C@H]2[C@@H]3CCC4=CC(=O)CC[C@]4(C)[C@H]3CC[C@]12C [DESOXYCORTICOSTERONE PIVALATE]	> 10	> 30	> 10	> 10	0.213	–	–	–
CCC(C)C(CC)C(N)=O (stereo unspecified) [VALNOCTAMIDE]	> 30	> 30	> 30	–	> 30	–	–	–
CCOC(=O)C1=C(C)NC(C)=C(C(=O)OC)C1c1cccc([N+](=O)[O-])c1 (stereo unspecified) [NITRENDIPINE]	–	22	> 10	0.0004	–	–	–	–
CNC1=Nc2ccc(Cl)cc2C(c2ccccc2)=[N+]([O-])C1 [CHLORDIAZEPOXIDE]	–	–	> 10	> 10	–	–	–	–
C/N=C(\NC)NCc1ccccc1 [BETHANIDINE]	> 30	> 30	> 30	–	> 30	–	–	–
Cc1noc(NS(=O)(=O)c2ccc(N)cc2)c1C [SULFISOXAZOLE]	–	> 30	> 10	> 10	> 10	–	–	–
CCCCC1C(=O)N(c2ccccc2)N(c2ccccc2)C1=O [PHENYLBUTAZONE]	–	–	> 10	> 10	> 10	–	–	–
CCC[C@H](NC(=O)[C@@H]1[C@H]2CCC[C@H]2CN1C(=O)[C@@H](NC(=O)[C@@H](NC(=O)c1cnccn1)C1CCCCC1)C(C)(C)C)C(=O)C(=O)NC1CC1	> 10	–	–	> 10	–	–	–	–
CC1OC2(CS1)CN1CCC2CC1 (stereo unspecified) [CEVIMELINE]	> 30	–	> 10	> 10	> 10	–	–	–
CCOC(=O)c1cncn1[C@H](C)c1ccccc1 [ETOMIDATE]	> 10	–	> 10	> 10	> 10	–	–	–
Cc1cc2cc3c(C)cc(=O)oc3c(C)c2o1 [TRIOXSALEN]	–	–	> 10	> 10	> 30	–	–	–

Structure (SMILES)	AC50 [1] [µM]	AC50 (Cannabinoid receptor 1) [µM]	AC50 [2] [µM]	AC50 [3] [µM]	AC50 (Progesterone receptor) [µM]	AC50 (Mu-type opioid receptor) [µM]	AC50 (Histamine H3 receptor) [µM]	AC50 [4] [µM]
Oc1ccc2c(c1)CC[C@H](c1ccccc1)[C@@H]2c1ccc(OCCN2CCCC2)cc1 [LASOFOXIFENE]	11	> 30	–	–	> 30	–	–	–
Clc1ccc(C(Cn2ccnc2)OCc2ccsc2Cl)c(Cl)c1 (stereo unspecified) [TIOCONAZOLE]	> 30	–	> 30	23	> 30	–	–	–
CCCC(CCC)C(N)=O [VALPROMIDE]	> 10	> 30	> 10	> 10	–	–	–	–
CCC(C)C1(CC)C(=O)NC(=O)NC1=O (stereo unspecified) [BUTABARBITAL]	> 30	> 30	> 30	–	> 30	–	–	–
CC(C(=O)O)c1ccc(CC2CCCC2=O)cc1 (stereo unspecified) [LOXOPROFEN]	–	> 30	> 30	> 30	> 30	–	–	–
CC(=O)N[C@@H](CS)C(=O)O [ACETYLCYSTEINE]	> 30	> 30	> 30	–	> 30	–	–	–
CCCCC(=O)O[C@]1(C(=O)CO)[C@@H](C)C[C@H]2[C@@H]3CCC4=CC(=O)C=C[C@]4(C)[C@@]3(F)[C@@H](O)C[C@@]21C [BETAMETHASONE VALERATE]	> 10	> 30	> 10	> 10	–	–	–	–
C[C@]12CC[C@@H]3c4ccc(O)cc4C[C@@H](CCCCCCCCC[S+]([O-])CCCC(F)(F)C(F)(F)F)[C@H]3[C@@H]1CC[C@@H]2O (stereo partly specified) [FULVESTRANT]	> 30	> 30	> 30	–	> 30	–	–	–
CC(CCc1ccc(O)cc1)NCCc1ccc(O)c(O)c1 (stereo unspecified) [DOBUTAMINE]	–	> 30	> 30	> 30	> 30	–	–	–
CNCc1ccc(-c2[nH]c3cc(F)cc4c3c2CCNC4=O)cc1 [RUCAPARIB]	> 10	–	–	–	15.6	–	–	–
Cc1cc(N)c2ccccc2[n+]1CCCCCCCCCC[n+]1c(C)cc(N)c2ccccc21	–	–	–	–	–	0.684	0.0813	0.0497
Cc1cnc(C(=O)NCCc2ccc(S(=O)(=O)NC(=O)NC3CCCCC3)cc2)cn1 [GLIPIZIDE]	–	–	> 10	–	–	–	> 30	–
CC(C)NCC(O)c1ccc(O)c(O)c1 (stereo unspecified) [ISOPROTERENOL]	–	> 30	–	> 10	> 30	–	–	–
CN1CCC(=C2c3ccccc3CCc3cccnc32)CC1 [AZATADINE]	0.11	> 30	> 10	> 10	–	–	–	–
CC(C)[C@H](N)C(=O)OCC(CO)OCn1cnc2c(=O)nc(N)[nH]c21 (stereo partly specified) [VALGANCICLOVIR]	> 30	–	> 30	> 30	> 30	–	–	–
C=CCNc1nc(NCC=C)nc(N2CCN(C(c3ccc(F)cc3)c3ccc(F)cc3)CC2)n1 [ALMITRINE]	> 30	–	> 30	> 30	> 30	–	–	–
CC(N)C(O)c1ccccc1 (stereo unspecified) [PHENYLPROPANOLAMINE]	> 10	–	> 10	> 10	–	–	–	–
